PubChem BioAssay AID248 (DTP/NCI, 2004)
Values joined by “and” are separate entries in the source; they are usually repeats but may differ in a detail not shown here. Equal entries are not always repeated. Inconclusive results and toxic doses are left out. No stated cut-off is given here; in the data, active means T/C of 150% or more; inactive means T/C below 125%.

Test system: L1210 leukemia ip in BDF1 mice, survival T/C
Experiment: NCI In Vivo Anticancer Drug Screen. Data for tumor model L1210 Leukemia (intraperitoneal) in B6D2F1 (BDF1) mice
Details: endpoint: mean survival time, higher = longer survival
In short: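 Tumor was transplanted into mice, which were then dosed with test compound or vehicle alone. Survival was recorded for each group, and the treated figure was expressed relative to the control figure.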

[1] = dose: 100.0 mg/kg/injection, schedule: Q01DX009 (ip), vehicle: saline with Tween-80
[2] = dose: 200.0 mg/kg/injection, schedule: Q01DX009 (ip), vehicle: saline with Tween-80
[3] = dose: 400.0 mg/kg/injection, schedule: Q01DX009 (ip), vehicle: saline with Tween-80
[4] = dose: 100.0 mg/kg/injection, schedule: Q01DX009 (ip), vehicle: saline
[5] = dose: 200.0 mg/kg/injection, schedule: Q01DX009 (ip), vehicle: saline
[6] = dose: 400.0 mg/kg/injection, schedule: Q01DX009 (ip), vehicle: saline
[7] = dose: 100.0 mg/kg/injection, schedule: Q01DX001 (ip), vehicle: saline
[8] = dose: 200.0 mg/kg/injection, schedule: Q01DX001 (ip), vehicle: saline
[9] = dose: 100.0 mg/kg/injection, schedule: Q01DX009 (ip), vehicle: Klucel (hydroxypropylcellulose) (HPC)
[10] = dose: 100.0 mg/kg/injection, schedule: Q04DX003 (ip), vehicle: Klucel (hydroxypropylcellulose) (HPC)
[11] = dose: 200.0 mg/kg/injection, schedule: Q04DX003 (ip), vehicle: Klucel (hydroxypropylcellulose) (HPC)
[12] = dose: 400.0 mg/kg/injection, schedule: Q04DX003 (ip), vehicle: Klucel (hydroxypropylcellulose) (HPC)
[13] = dose: 25.0 mg/kg/injection, schedule: Q01DX009 (ip), vehicle: saline with Tween-80
[14] = dose: 50.0 mg/kg/injection, schedule: Q01DX009 (ip), vehicle: saline with Tween-80

Measured: T/C

CN(C)c1ccc(/C=C/C(=O)c2ccc([N+](=O)[O-])cc2)cc1
inactive: dose: 3.0 mg/kg/injection, schedule: Q01DX009 (ip), vehicle: gum acacia 100 % of control | dose: 6.0 mg/kg/injection, schedule: Q01DX009 (ip), vehicle: gum acacia 96 % of control | dose: 12.0 mg/kg/injection, schedule: Q01DX009 (ip), vehicle: gum acacia 94 % of control | dose: 12.5 mg/kg/injection, schedule: Q01DX009 (ip), vehicle: gum acacia 91 % of control | dose: 100.0 mg/kg/injection, schedule: Q01DX009 (ip), vehicle: gum acacia 87 % of control | dose: 100.0 mg/kg/injection, schedule: Q04DX003 (ip), vehicle: gum acacia 89 % of control | dose: 200.0 mg/kg/injection, schedule: Q04DX003 (ip), vehicle: gum acacia 86 % of control | dose: 400.0 mg/kg/injection, schedule: Q01DX009 (ip), vehicle: gum acacia 96 % of control | dose: 400.0 mg/kg/injection, schedule: Q04DX003 (ip), vehicle: gum acacia 89 % of control

CCCOC(=O)Nc1cccc(O)c1
inactive: [1] 92 % of control | [2] 94 % of control | [3] 88 % of control

CCOC(=O)c1c(/N=C/c2cc(Br)cc(Br)c2O)sc2c1CCCC2
inactive: dose: 100.0 mg/kg/injection, schedule: Q04DX002 (ip), vehicle: saline with Tween-80 91 % of control | dose: 200.0 mg/kg/injection, schedule: Q04DX002 (ip), vehicle: saline with Tween-80 102 % of control | dose: 400.0 mg/kg/injection, schedule: Q04DX002 (ip), vehicle: saline with Tween-80 105 % of control

CC(=O)CN
inactive: [4] 111 % of control | [5] 104 % of control | [6] 108 % of control

O=C(O)/C(S)=C\c1ccc(Cl)cc1
inactive: [7] 97 % of control | [8] 94 % of control

O=C(NC(=S)NCc1ccncc1)c1ccccc1
inactive: dose: 100.0 mg/kg/injection, schedule: Q04DX002 (ip), vehicle: Klucel (hydroxypropylcellulose) (HPC) 100 % of control | dose: 200.0 mg/kg/injection, schedule: Q04DX002 (ip), vehicle: Klucel (hydroxypropylcellulose) (HPC) 95 % of control | dose: 400.0 mg/kg/injection, schedule: Q04DX002 (ip), vehicle: Klucel (hydroxypropylcellulose) (HPC) 92 % of control

CC(C)(C)OC(=O)CCC(NC(=O)OCc1ccccc1)C(=O)NN (stereo not given)
inactive: dose: 50.0 mg/kg/injection, schedule: Q01DX009 (ip), vehicle: Klucel (hydroxypropylcellulose) (HPC) 100 % of control | dose: 75.0 mg/kg/injection, schedule: Q01DX001 (ip), vehicle: Klucel (hydroxypropylcellulose) (HPC) 88 % of control | [9] 110 % of control | [10] 99 % of control | dose: 150.0 mg/kg/injection, schedule: Q01DX001 (ip), vehicle: Klucel (hydroxypropylcellulose) (HPC) 108 % of control | dose: 200.0 mg/kg/injection, schedule: Q01DX009 (ip), vehicle: Klucel (hydroxypropylcellulose) (HPC) 100 % of control | [11] 106 % of control | dose: 300.0 mg/kg/injection, schedule: Q01DX001 (ip), vehicle: Klucel (hydroxypropylcellulose) (HPC) 92 % of control | [12] 105 % of control

CC1CCCCC1O (stereo not given)
inactive: [1] 102 % of control | [2] 92 % of control

O=Nc1cc(-c2nccc3ccccc23)[nH]c1-c1ccccc1
inactive: dose: 100.0 mg/kg/injection, schedule: Q01DX001 (ip), vehicle: other 94 % of control | dose: 200.0 mg/kg/injection, schedule: Q01DX001 (ip), vehicle: other 96 % of control | dose: 400.0 mg/kg/injection, schedule: Q01DX001 (ip), vehicle: other 94 % of control

COC(OC)c1[nH]c(=S)[nH]c(=O)c1Cc1cccc(Cl)c1
inactive: [4] 100 % of control | [6] 113 % of control

c1cnc2nc3[nH]c4ccccc4c3nc2c1
inactive: [13] 92 % of control | dose: 50.0 mg/kg/injection, schedule: Q01DX001 (oral), vehicle: saline with Tween-80 107 % of control | [14] 92 % of control and 89 % of control | dose: 50.0 mg/kg/injection, schedule: Q04DX003 (ip), vehicle: saline with Tween-80 96 % of control | dose: 100.0 mg/kg/injection, schedule: Q01DX001 (oral), vehicle: saline with Tween-80 115 % of control | [1] 94 % of control and 91 % of control | dose: 100.0 mg/kg/injection, schedule: Q04DX003 (ip), vehicle: saline with Tween-80 88 % of control | dose: 200.0 mg/kg/injection, schedule: Q01DX001 (oral), vehicle: saline with Tween-80 110 % of control | [2] 92 % of control and 94 % of control | dose: 200.0 mg/kg/injection, schedule: Q04DX003 (ip), vehicle: saline with Tween-80 90 % of control | dose: 400.0 mg/kg/injection, schedule: Q01DX001 (oral), vehicle: saline with Tween-80 108 % of control | [3] 92 % of control | dose: 400.0 mg/kg/injection, schedule: Q04DX003 (ip), vehicle: saline with Tween-80 86 % of control | dose: 800.0 mg/kg/injection, schedule: Q01DX001 (oral), vehicle: saline with Tween-80 105 % of control

CC(C)C1C(C(=O)O)NC(=O)C1C(=O)O (stereo not given)
inactive: dose: 12.0 mg/kg/injection, schedule: Q01DX009 (ip), vehicle: saline with Tween-80 106 % of control | dose: 25.0 mg/kg/injection, schedule: Q01DX009 (ip), vehicle: Klucel (hydroxypropylcellulose) (HPC) 106 % of control | [13] 99 % of control | [14] 97 % of control | [9] 108 % of control | [10] 96 % of control | [11] 98 % of control | [12] 95 % of control

CC1C/C=C2\CSC(NC(=O)/C3=C\N(C/C=C/C=C/C(O)CC(O)CC(=O)N3)C2=O)C(=O)O1 (stereo not given)
inactive: dose: 10.6 mg/kg/injection, schedule: Q01DX Z (ip), vehicle: saline 100 % of control | dose: 16.0 mg/kg/injection, schedule: Q01DX Z (ip), vehicle: saline 106 % of control | dose: 24.0 mg/kg/injection, schedule: Q01DX Z (ip), vehicle: saline 106 % of control | dose: 36.0 mg/kg/injection, schedule: Q01DX Z (ip), vehicle: saline 103 % of control | dose: 100.0 mg/kg/injection, schedule: Q01DX001 (ip), vehicle: carboxymethylcellulose (CMC) 110 % of control | dose: 200.0 mg/kg/injection, schedule: Q01DX001 (ip), vehicle: carboxymethylcellulose (CMC) 94 % of control | dose: 400.0 mg/kg/injection, schedule: Q01DX001 (ip), vehicle: carboxymethylcellulose (CMC) 97 % of control

CCOc1cc2cc(C(=O)O)sc2cc1OCC
inactive: [7] 101 % of control | [8] 110 % of control | dose: 400.0 mg/kg/injection, schedule: Q01DX001 (ip), vehicle: saline 104 % of control

C[C@H]1CC2=CC(=O)CC[C@]2(C)[C@H]2CC[C@@]3(C)[C@@H](CC[C@]3(C)O)[C@H]12
inactive: dose: 12.5 mg/kg/injection, schedule: Q01DX009 (sc), vehicle: saline 102 % of control | dose: 25.0 mg/kg/injection, schedule: Q01DX009 (ip), vehicle: saline 97 % of control | dose: 25.0 mg/kg/injection, schedule: Q01DX009 (sc), vehicle: saline 107 % of control | dose: 50.0 mg/kg/injection, schedule: Q01DX001 (sc), vehicle: steriod suspending solution 101 % of control | dose: 50.0 mg/kg/injection, schedule: Q01DX009 (ip), vehicle: saline 100 % of control | dose: 50.0 mg/kg/injection, schedule: Q01DX009 (sc), vehicle: saline 103 % of control | dose: 100.0 mg/kg/injection, schedule: Q01DX001 (sc), vehicle: steriod suspending solution 101 % of control | [4] 94 % of control | dose: 100.0 mg/kg/injection, schedule: Q01DX009 (sc), vehicle: saline 100 % of control | dose: 200.0 mg/kg/injection, schedule: Q01DX001 (sc), vehicle: steriod suspending solution 107 % of control | dose: 200.0 mg/kg/injection, schedule: Q01DX009 (ip), vehicle: acetone 96 % of control | [5] 96 % of control | dose: 200.0 mg/kg/injection, schedule: Q01DX009 (sc), vehicle: acetone 101 % of control | dose: 400.0 mg/kg/injection, schedule: Q01DX001 (sc), vehicle: steriod suspending solution 101 % of control

CSc1ccc(NC(=O)Nc2ccccc2C(N)=O)cc1
inactive: [4] 108 % of control | dose: 100.0 mg/kg/injection, schedule: Q04DX003 (ip), vehicle: saline 92 % of control | [5] 114 % of control | dose: 200.0 mg/kg/injection, schedule: Q04DX003 (ip), vehicle: saline 98 % of control | dose: 400.0 mg/kg/injection, schedule: Q04DX003 (ip), vehicle: saline 95 % of control
